The record followed here is the NIST ThermoML archive (doi:10.1016/j.jct.2008.01.007).

± gives the expanded uncertainty stated by the source.

The conditions of this data set: 101 kPa, Liquid.

`OCCN1CCOCC1` [4-morpholineethanol]: the mass density reads like this: (293.15 K) 1076.58 ± 3.1 kg/m3; (303.15 K) 1066.51 ± 3 kg/m3; (313.15 K) 1059.19 ± 2.8 kg/m3; (323.15 K) 1052.64 ± 2.7 kg/m3; (333.15 K) 1046.43 ± 2.6 kg/m3. Besides, the viscosity is, setting by setting: (293.15 K) 26.58 ± 1.8 mPa·s; (303.15 K) 21.99 ± 1.5 mPa·s; (313.15 K) 17.32 ± 1.2 mPa·s; (323.15 K) 12.86 ± 0.92 mPa·s; (333.15 K) 8.284 ± 0.64 mPa·s.

The mass density is mass per unit of volume. The viscosity is the internal friction of a fluid under shear.
